{
  "source": "patent US20120149080A1",
  "about": "“YEAST PRODUCTION CULTURE FOR THE PRODUCTION OF BUTANOL” (Butamax(TM) Advanced Biofuels LLC, priority 2010, published 2012)",
  "key": {"Yeast cultures": {"tested_on": "Yeast cultures", "details": "1% butanol", "protocol": "Survival was measured by assaying the number of colony forming units (CFU), which is a measure of live cells."}, "[1]": {"tested_on": "Saccharomyces cerevisiae BY4743", "experiment": "24 hour survival (CFU) at low and high cell density", "type": "cell-based", "protocol": "Saccharomyces cerevisiae BY4743 (ATCC 201390) was plated from a freezer vial onto YPD agar (Teknova, Hollister, Calif.; Cat. #Y1000) and incubated overnight at 30° C. Cells from the YPD plate were inoculated into a 25 ml pre-culture of YPD broth (Teknova; Cat. #Y5000) with an initial OD600 of 0.06 to 0.08. The pre-culture was grown for 7 hours in an aerobic shaker at 30° C. An aliquot of the pre-culture was inoculated into 200 ml of YPD broth, with an initial OD600 of 0.06 to 0.08, and this culture was incubated with aeration at 30° C. for approximately 17 hours. The optical density of the culture was measured, the culture was centrifuged and the cells were resuspended to yield an OD600 of 5 in fresh YPD broth. This is referred to as a high cell density (HCD) culture. […] This is referred to as a low the cell density (LCD) culture. These cultures were incubated at 30° C. with shaking for 30 minutes for an acclimation period. At the end of the 30 minute acclimation period, the OD600 was measured. 5 ml of low or high cell density culture was dispensed to 15 ml conical tubes which contained different concentrations of the alcohol to be tested. A control tube included no alcohol. The tubes were placed in a rotary drum at 30° C. and incubated for 24 hours. The time of addition of cells was referred to as “time 0”. […] Colony forming units (CFUs) were determined on YPD plates at time 0 for the control and at 24 hours for each of the cultures, including the control culture, using standard microbiological methods. […] Colonies were counted after 48 hours, and CFUs/ml were calculated. At time 0, the low cell density cultures had about 4.8×10^5 CFUs/ml, and the high cell density cultures had about 5.4×10^7 CFUs/ml."}, "[2]": {"details": "2.0% (w/v) alcohol, high cell density"}, "[3]": {"details": "2.0% (w/v) alcohol, low cell density"}},
  "note": "Read-outs that look alike come from different tables or passages of the source.",
  "data": [
    {"molecule": "butanol", "values": [
      {"measurement": "survival rate compared to control culture without butanol", "setting": "Yeast cultures; high cell density cultures", "result": "at least 40%"},
      {"measurement": "survival rate compared to control culture without butanol", "setting": "Yeast cultures; low cell density cultures (100-fold fewer cells)", "result": "up to 13%"}
    ]},
    {"molecule": "CCO", "note": "[Ethanol, ethanol]", "values": [
      {"measurement": "Percent Survival HCD (%)", "setting": "[1]; [2]", "result": 62.5, "unit": "%"},
      {"measurement": "Percent Survival LCD (%)", "setting": "[1]; [3]", "result": 100.0, "unit": "%"},
      {"measurement": "Percent Survival HCD (%)", "setting": "[1]; 4% (w/v) alcohol, high cell density", "result": 50.2, "unit": "%"},
      {"measurement": "Percent Survival LCD (%)", "setting": "[1]; 4% (w/v) alcohol, low cell density", "result": 100.0, "unit": "%"},
      {"measurement": "Percent Survival HCD (%)", "setting": "[1]; 5% (w/v) alcohol, high cell density", "result": 38.9, "unit": "%"},
      {"measurement": "Percent Survival LCD (%)", "setting": "[1]; 5% (w/v) alcohol, low cell density", "result": 25.3, "unit": "%"}
    ]},
    {"molecule": "CCC(C)O", "note": "(centres unmarked) [2-Butanol, 2-butanol]", "values": [
      {"measurement": "Percent Survival HCD (%)", "setting": "[1]; [2]", "result": 27.6, "unit": "%"},
      {"measurement": "Percent Survival LCD (%)", "setting": "[1]; [3]", "result": 0.3, "unit": "%"},
      {"measurement": "Percent Survival HCD (%)", "setting": "[1]; 3% (w/v) alcohol, high cell density", "result": 18.9, "unit": "%"},
      {"measurement": "Percent Survival LCD (%)", "setting": "[1]; 3% (w/v) alcohol, low cell density", "result": 0.1, "unit": "%"},
      {"measurement": "Percent Survival HCD (%)", "setting": "[1]; 3.5% (w/v) alcohol, high cell density", "result": "<0.001", "unit": "%"},
      {"measurement": "Percent Survival LCD (%)", "setting": "[1]; 3.5% (w/v) alcohol, low cell density", "result": "<0.001", "unit": "%"}
    ]},
    {"molecule": "CCCCO", "note": "[1-Butanol, 1-butanol]", "values": [
      {"measurement": "Percent Survival HCD (%)", "setting": "[1]; 1.0% (w/v) alcohol, high cell density OD600 5", "result": 72.2, "unit": "%"},
      {"measurement": "Percent Survival LCD (%)", "setting": "[1]; 1.0% (w/v) alcohol, low cell density OD600 0.05", "result": 1.3, "unit": "%"},
      {"measurement": "Percent Survival HCD (%)", "setting": "[1]; 1.5% (w/v) alcohol, high cell density", "result": 57.3, "unit": "%"},
      {"measurement": "Percent Survival LCD (%)", "setting": "[1]; 1.5% (w/v) alcohol, low cell density", "result": 0.4, "unit": "%"},
      {"measurement": "Percent Survival HCD (%)", "setting": "[1]; [2]", "result": 3.6, "unit": "%"},
      {"measurement": "Percent Survival LCD (%)", "setting": "[1]; [3]", "result": 0.1, "unit": "%"}
    ]}
  ]
}
